Reference: patent publication US5098931A, “7-substituted HMG-CoA reductase inhibitors” (Merck & Co., Inc., priority 1990, dated 1992)

target: T1, HMG-CoA reductase (Rattus norvegicus, UniProt P51639); assay: intrinsic HMG-CoA reductase inhibition, published in vitro protocol (J. Med. Chem., 28, p. 347-358 (1985)); type: biochemical; conditions: IC50 of test compound compared with that of compactin (mevastatin) determined simultaneously; compactin assigned a value of 100
T1 sequence (P51639 1-887): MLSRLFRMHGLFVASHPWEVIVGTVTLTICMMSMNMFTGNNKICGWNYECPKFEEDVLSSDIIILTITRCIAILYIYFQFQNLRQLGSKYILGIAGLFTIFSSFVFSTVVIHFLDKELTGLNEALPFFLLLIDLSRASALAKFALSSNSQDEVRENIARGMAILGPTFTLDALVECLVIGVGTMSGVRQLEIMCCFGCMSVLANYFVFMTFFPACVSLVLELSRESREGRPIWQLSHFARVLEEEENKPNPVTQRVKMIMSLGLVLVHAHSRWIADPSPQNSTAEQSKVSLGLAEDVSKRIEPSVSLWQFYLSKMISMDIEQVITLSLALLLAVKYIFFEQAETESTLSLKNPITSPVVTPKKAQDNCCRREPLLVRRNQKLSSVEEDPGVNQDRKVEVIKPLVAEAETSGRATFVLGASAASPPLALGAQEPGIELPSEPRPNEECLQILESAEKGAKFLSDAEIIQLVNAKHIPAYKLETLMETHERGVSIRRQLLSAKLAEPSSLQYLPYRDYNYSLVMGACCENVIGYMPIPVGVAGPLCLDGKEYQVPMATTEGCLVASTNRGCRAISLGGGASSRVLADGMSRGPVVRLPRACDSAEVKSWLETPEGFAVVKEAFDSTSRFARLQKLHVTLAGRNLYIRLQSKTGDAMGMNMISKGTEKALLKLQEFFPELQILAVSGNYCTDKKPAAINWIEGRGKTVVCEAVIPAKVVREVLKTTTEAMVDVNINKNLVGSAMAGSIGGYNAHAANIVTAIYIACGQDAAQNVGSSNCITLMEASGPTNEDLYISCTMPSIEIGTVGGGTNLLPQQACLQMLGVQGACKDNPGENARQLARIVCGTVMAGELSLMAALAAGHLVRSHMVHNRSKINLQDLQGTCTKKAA
Method: The intrinsic HMG-CoA reductase inhibition activity of the claimed compounds is measured in the in vitro protocol published in J. Med. Chem., 28, p. 347-358 (1985). […] Representative of the intrinsic HMG-CoA reductase inhibitory activities of the claimed compounds are the following relative potencies for compounds of formula (I).

Relative Potency (Compactin = 100) | SMILES
174 | CCC(C)(C)C(=O)O[C@H]1[C@H](C)[C@@H](C)C=C2C=C[C@H](C)[C@H](CC[C@@H]3C[C@@H](O)CC(=O)O3)[C@H]21 [6(R)-[2-[8(R)-(2,2-dimethylbutyryloxy)-2(S)-methyl-6(S)-methyl-7(R)-methyl-1,2,6,7,8,8a(R)-hexahydronaphthyl-1(S)]ethyl]-4(R)-hydroxy-3,4,5,6-tetrahydro-2H-pyran-2-one]
214 | CCC(C)(C)C(=O)O[C@H]1[C@@H](O)[C@@H](C)C=C2C=C[C@H](C)[C@H](CC[C@@H]3C[C@@H](O)CC(=O)O3)[C@H]21 [6(R)-[2-[8(R)-(2,2-dimethylbutyryloxy)-2(S)-methyl-6(S)-methyl-7(S)-hydroxy-1,2,6,7,8,8a(R)-hexahydronaphthyl-1(S)]ethyl]-4(R)-hydroxy-3,4,5,6-tetrahydro-2H-pyran-2-one]
262 | CCC(C)(C)C(=O)O[C@H]1[C@H](CO)[C@@H](C)C=C2C=C[C@H](C)[C@H](CC[C@@H]3C[C@@H](O)CC(=O)O3)[C@H]21 [6(R)-[2-[8(R)-(2,2-dimethylbutyryloxy)-2(S)-methyl-6(S)-methyl-7(S)-hydroxymethyl-1,2,6,7,8,8a(R)-hexahydronaphthyl-1(S)]ethyl]-4(R)-hydroxy-3,4,5,6-tetrahydro-2H-pyran-2-one]
124 | CCC(C)(C)C(=O)O[C@@H]1[C@H]2C(=C[C@H](C)[C@H]1[C@@H](C)O)C=C[C@H](C)[C@@H]2CC[C@@H]1C[C@@H](O)CC(=O)O1 [6R-[2-[8(R)-(2,2-dimethylbutyryloxy)-2(S)-methyl-6(S)-methyl-7(S)-(1(R)-hydroxyethyl)-1,2,6,7,8,8a(R)-hexahydronaphthyl-1(S)]ethyl]-4(R)-hydroxy-3,4,5,6-tetrahydro-2H-pyran-2-one]
137 | CCC(C)(C)C(=O)O[C@@H]1[C@H]2C(=C[C@H](C)[C@H]1[C@H](O)c1ccccc1)C=C[C@H](C)[C@@H]2CC[C@@H]1C[C@@H](O)CC(=O)O1 [6R-[2-[8(R)-(2,2-dimethylbutyryloxy)-2(S)-methyl-6(S)-methyl-7(S)-(1(S)-hydroxybenzyl)-1,2,6,7,8,8a(R)-hexahydronaphthyl-1(S)]-ethyl]-4(R)-hydroxy-3,4,5,6-tetrahydro-2H-pyran-2-one]
350 | CCC(C)(C)C(=O)O[C@@H]1[C@H]2C(=C[C@H](C)[C@H]1[C@H](C)O)C=C[C@H](C)[C@@H]2CC[C@@H]1C[C@@H](O)CC(=O)O1 [6R-[2-[8(R)-(2,2-dimethylbutyryloxy)-2(S)-methyl-6(S)-methyl-7(S)-(1(S)-hydroxyethyl)-1,2,6,7,8,8a(R)-hexahydronaphthyl-1(S)]ethyl]-4(R)-hydroxy-3,4,5,6-tetrahydro-2H-pyran-2-one]
